Converted amounts (≈) assume the structure as drawn. Like-named read-outs stand apart in the source and are kept apart here.
What was measured:
[1] = when used as injections; cited from earlier work
Sarcoma 180 tumor = assay: Therapeutic Effect Against Sarcoma 180 Tumor; format: in vivo, male ddY-strain mice; conditions: Mus musculus, Sarcoma-180, iv, 168 h, read-out: T/C
Procedure: Five male ddY-strain mice each weighing 18-20 g were used for each group as test animals, and 5×10^5 Sarcoma 180 tumor cells were implanted at the axilla subcutaneously. One day after the implantation, 0.2 ml of a physiological saline containing Compound (I) at the concentration shown in Table 2 was intravenously administered to each mouse. T/C [T: average tumor volume (mm^3) of the group treated with the test compound, C: average tumor volume (mm^3) of the control group (to which […] of a physiological saline was intravenously administered)] was determined seven days after the implantation.

[2] = Test for Solubility in Water; format: physicochemical; conditions: room temperature
Procedure: A sample tube was charged with 0.7 mg of Compound (I), and 30 μl of water were added thereto at room temperature. The mixture was stirred, and the solubility in water was measured. When the compound was not dissolved, 30 μl of water was added thereto successively, and the mixture was stirred. The solubility in water was measured when the compound was dissolved.

ddY-strain male mice = assay: Acute Toxicity; format: in vivo; conditions: i.v., mortality at 14 days after administration
Procedure: Compound (I) was intravenously administered to ddY-strain male mice each weighing 20±1 g. MLD (minimum lethal dose) was determined by observing the mortality at 14 days after administration.

HeLaS3 cells = assay: Growth Inhibitory Effect Against HeLaS3 cells; format: cell-based
Procedure: HeLaS3 cells were suspended in MEM medium containing 10% calf serum and 2 mM glutamine to a concentration of 2.67×10^4 cells/mi. The cell suspension thus prepared was put into wells of a 24-well culture plate in an amount of 0.75 ml per well. After the cells were incubated in a CO2 incubator overnight at 37° C., Compound (I) which had been appropriately diluted with a culture medium was added to each well in an amount of 0.25 ml.
The cells were further incubated in the CO2 incubator for 72 hours, and the culture supernatant was removed. Then, the cells were dispersed in a solution of trypsin and EDTA and recovered. The number of cells was counted using a cell counter. The concentration (IC50) of Compound (I) at which the growth of the cells is inhibited by 50% was calculated by comparing the number of untreated cells with the number of the cells treated with Compound (I) at known concentrations.

various bacteria = conditions: cited from earlier work
melanoma B-16 = conditions: cited from earlier work
[3] = Homo sapiens, HeLa S3, 72 hours, read-out: IC50

Structure (SMILES)	solubility [2] [mg/mL]	MLD (minimum lethal dose) (ddY-strain male mice) [mg/kg]	IC50 (HeLaS3 cells; Homo sapiens, HeLa S3, 72 h) [nM]	further results
COC(=O)c1c(C)[nH]c2c1C13CC1CN(C(=O)/C=C/c1ccc(OC)cc1)C3=CC2=O (stereo not shown) [(B)]				water-solubility [1]: lack satisfactory water-solubility
COC(=O)c1c(C)[nH]c2c(OC(=O)N3CCN(C)CC3)cc3c(c12)C(CBr)CN3C(=O)/C=C/c1ccc(OC)nc1 (stereo not shown) [Compound 3]	> 20	1.0	110	response vs control in vivo at 1 mg/kg (Sarcoma 180 tumor): 36%
COC(=O)Oc1cc2c(c3c(C(=O)OC)c(C)[nH]c13)C(CBr)CN2C(=O)/C=C/c1ccc(OC)nc1 (stereo not shown) [Compound 4]		0.50	0.7	response vs control in vivo at 0.5 mg/kg (Sarcoma 180 tumor): 35%
COC(=O)c1c(C)[nH]c2c(OC(=O)N3CCN(C)CC3)cc3c(c12)C(CBr)CN3C(=O)/C=C/c1cnc(OC)nc1 (stereo not shown) [Compound 8]	> 20	4.0	170	response vs control in vivo at 2 mg/kg (Sarcoma 180 tumor): 26%
COC(=O)c1c(C)[nH]c2c(OC(C)=O)cc3c(c12)C(CBr)CN3C(=O)/C=C/c1cnc(OC)nc1 (stereo not shown) [Compound 11]		1.0	0.92	response vs control in vivo at 1 mg/kg (Sarcoma 180 tumor): 17%
COC(=O)c1c(C)[nH]c2c(OC(=O)N3CCN(C)CC3)cc3c(c12)C(CBr)CN3C(=O)/C=C/c1ccc(OC)nn1 (stereo not shown) [Compound 14]	> 20	0.50	90	response vs control in vivo at 1 mg/kg (Sarcoma 180 tumor): 31%
COC(=O)c1c(C)[nH]c2c(OC(=O)N3CCN(C)CC3)cc3c(c12)C(CBr)CN3C(=O)COc1ccc(OC)cc1 (stereo not shown) [Compound 20]		0.50	94	response vs control in vivo at 0.5 mg/kg (Sarcoma 180 tumor): 20%
COC(=O)c1c(C)[nH]c2c(OC(=O)N3CCN(C)CC3)cc3c(c12)C(CBr)CN3C(=O)COc1ccc(OC(F)(F)F)cc1 (stereo not shown) [Compound 25]	0.2 (≈ 0.293 mM)	4.0	1100	response vs control in vivo at 2 mg/kg (Sarcoma 180 tumor): 12%
COC(=O)c1c(C)[nH]c2c(OC(=O)N3CCN(C)CC3)cc3c(c12)C(CBr)CN3C(=O)/C=C/c1ccc(OC)c(N(C)C)c1 (stereo not shown) [Compound 43]	< 0.5	4.0	52	response vs control in vivo at 2 mg/kg (Sarcoma 180 tumor): 13%
COC(=O)c1c(C)[nH]c2c(OC(C)=O)cc3c(c12)C(CBr)CN3C(=O)/C=C/c1ccc(OC)c(N(C)C)c1 (stereo not shown) [Compound 45]	> 20	1.0	0.54	response vs control in vivo at 1 mg/kg (Sarcoma 180 tumor): 20%
CCN(CC)c1cc(/C=C/C(=O)N2CC(CBr)c3c2cc(OC(=O)N2CCN(C)CC2)c2[nH]c(C)c(C(=O)OC)c32)ccc1OC (stereo not shown) [Compound 49]	> 20	> 8.0	280	response vs control in vivo at 8 mg/kg (Sarcoma 180 tumor): 20%
COC(=O)c1c(C)[nH]c2c(OC(C)=O)cc3c(c12)C(CCl)CN3C(=O)/C=C/c1ccc(OC)c(N(C)C)c1 (stereo not shown) [Compound 51]	> 10	4.0		response vs control in vivo at 4 mg/kg (Sarcoma 180 tumor; 4.0 mg/kg, single i.v. one day after s.c. implantation, tumor volume ratio seven days after implantation): 14%; IC50 (HeLaS3 cells; [3]): 0.46 nM
COC(=O)c1c(C)[nH]c2c(OC(=O)N(C)N)cc3c(c12)C(CBr)CN3C(=O)/C=C/c1ccc(OC)c(N(C)C)c1 (stereo not shown) [Compound 53]		2.0	1.2	response vs control in vivo at 2 mg/kg (Sarcoma 180 tumor): 7%
COC(=O)c1c(C)[nH]c2c(OC(=O)c3cccnc3)cc3c(c12)C(CBr)CN3C(=O)/C=C/c1ccc(OC)c(N(C)C)c1 (stereo not shown) [Compound 55]	> 18	1.0	0.43	response vs control in vivo at 1 mg/kg (Sarcoma 180 tumor): 28%
COC(=O)c1c(C)[nH]c2c(OC(=O)c3ccc(N(C)C)cc3)cc3c(c12)C(CBr)CN3C(=O)/C=C/c1ccc(OC)c(N(C)C)c1 (stereo not shown) [Compound 56]		1.0	2.2	response vs control in vivo at 1 mg/kg (Sarcoma 180 tumor): 36%
COC(=O)c1c(C)[nH]c2c(OC(=O)NN3CCN(C)CC3)cc3c(c12)C(CBr)CN3C(=O)/C=C/c1ccc(OC)c(N(C)C)c1 (stereo not shown) [Compound 60]	> 20	> 8.0	0.94	response vs control in vivo at 4 mg/kg (Sarcoma 180 tumor): 15%

Structure (SMILES)	solubility [2] [mg/mL]	MLD (minimum lethal dose) (ddY-strain male mice) [mg/kg]	IC50 (HeLaS3 cells; Homo sapiens, HeLa S3, 72 h) [nM]	further results
COC(=O)c1c(C)[nH]c2c(OC(=O)NN(C)C)cc3c(c12)C(CBr)CN3C(=O)/C=C/c1ccc(OC)c(N(C)C)c1 (stereo not shown) [Compound 62]	> 20	2.0		response vs control in vivo at 2 mg/kg (Sarcoma 180 tumor; 2.0 mg/kg, single i.v. one day after s.c. implantation, tumor volume ratio seven days after implantation): 19%; IC50 (HeLaS3 cells; [3]): 0.62 nM
CNN(C)C(=O)Oc1cc2c(c3c(C(=O)OC)c(C)[nH]c13)C(CBr)CN2C(=O)/C=C/c1ccc(OC)c(N(C)C)c1 (stereo not shown) [Compound 64]	> 15	2.0	1.1	response vs control in vivo at 1.3 mg/kg (Sarcoma 180 tumor): 26%
COC(=O)c1c(C)[nH]c2c(OC(=O)c3ccc(CN4CCN(C)CC4)cc3)cc3c(c12)C(CBr)CN3C(=O)/C=C/c1ccc(OC)c(N(C)C)c1 (stereo not shown) [Compound 66]	> 20	2.0	1.1	response vs control in vivo at 2 mg/kg (Sarcoma 180 tumor): 21%
COC(=O)c1c(C)[nH]c2c(OC(=O)c3cccnc3)cc3c(c12)C(CBr)CN3C(=O)/C=C/c1cnc(OC)nc1 (stereo not shown) [Compound 67]		1.0	1.2	response vs control in vivo at 1 mg/kg (Sarcoma 180 tumor): 26%
COC(=O)c1c(C)[nH]c2c(OC(=O)NN3CCN(C)CC3)cc3c(c12)C(CCl)CN3C(=O)/C=C/c1cnc(OC)nc1 (stereo not shown) [Compound 69]	> 10	4.0	1.4	response vs control in vivo at 4 mg/kg (Sarcoma 180 tumor): 40%
COC(=O)c1c(C)[nH]c2c(OC(=O)NN3CCN(C)CC3)cc3c(c12)C(CBr)CN3C(=O)/C=C/c1cnc(OC)nc1 (stereo not shown) [Compound 72]		4.0		response vs control in vivo at 4 mg/kg (Sarcoma 180 tumor): 15%; Solubility in water [2]: > 10 mg/mL; IC50 (HeLaS3 cells; 72 hours): 1.6 nM
COC(=O)c1c(C)[nH]c2c(OC(=O)c3cccnc3)cc3c(c12)C(CBr)CN3C(=O)/C=C/c1ccc(N(C)C)cc1 (stereo not shown) [Compound 77]		4.0	0.45	response vs control in vivo at 4 mg/kg (Sarcoma 180 tumor): 19%
COC(=O)c1c(C)[nH]c2c(OC(=O)N3CCN(C)CC3)cc3c(c12)C(CBr)CN3C(=O)/C=C/c1ccc(N(C)C)cc1 (stereo not shown) [Compound 79]	> 20		52	response vs control in vivo at 8 mg/kg (Sarcoma 180 tumor): 22%
COC(=O)c1c(C)[nH]c2c(OC(=O)CN3CCN(C)CC3)cc3c(c12)C(CBr)CN3C(=O)/C=C/c1ccc(OC)c(N(C)C)c1 (stereo not shown) [Compound 82]	> 10	2.0	0.5	
COC(=O)c1cc2c([nH]1)C(=O)C=C1N(C(=O)c3cc4cc(OC)c(OC)c(OC)c4[nH]3)CC3CC123 (stereo not shown) [DC113]				antibacterial activity (various bacteria): antibacterial activity against various bacteria; antitumor activity (melanoma B-16): anti-tumor activity against melanoma B-16
COC(=O)C1(C)NC2=C(C1=O)C13CC1CN(C(=O)c1cc4cc(OC)c(OC)c(OC)c4[nH]1)C3=CC2=O (stereo not shown) [DC-88A]				antibacterial activity (various bacteria): antibacterial activity against various bacteria; antitumor activity (melanoma B-16): anti-tumor activity against melanoma B-16
COC(=O)C1(C)Nc2c(O)cc3c(c2C1=O)CC(Cl)CN3C(=O)c1cc2cc(OC)c(OC)c(OC)c2[nH]1 (stereo not shown) [DC-89A1]				antibacterial activity (various bacteria): antibacterial activity against various bacteria; antitumor activity (melanoma B-16): antitumor activity against melanoma B-16
COC(=O)C1(C)Nc2c(O)cc3c(c2C1=O)C(CCl)CN3C(=O)c1cc2cc(OC)c(OC)c(OC)c2[nH]1 (stereo not shown) [DC-89A2]				antibacterial activity (various bacteria): antibacterial activity against various bacteria; antitumor activity (melanoma B-16): antitumor activity against melanoma B-16
COC(=O)C1(C)Nc2c(O)cc3c(c2C1=O)CC(Br)CN3C(=O)c1cc2cc(OC)c(OC)c(OC)c2[nH]1 (stereo not shown) [DC-89B1]				antibacterial activity (various bacteria): antibacterial activity against various bacteria; antitumor activity (melanoma B-16): antitumor activity against melanoma B-16
COC(=O)C1(C)Nc2c(O)cc3c(c2C1=O)C(CBr)CN3C(=O)c1cc2cc(OC)c(OC)c(OC)c2[nH]1 (stereo not shown) [DC-89B2]				antibacterial activity (various bacteria): antibacterial activity against various bacteria; antitumor activity (melanoma B-16): antitumor activity against melanoma B-16

From US5670492A, “DC-89 derivatives” (priority 1994, dated 1997)
